Earlier results, collected in patent publication US20160106677A1, “PHARMACEUTICAL COMPOSITION AND USES THEREOF” (Boehringer Ingelheim International GmbH, priority 2014, published 2016).

Tested on: HbA1c
Details: metformin on its own, in the diabetic

CN(C)C(=N)N=C(N)N [metformin]
average improvement in the HbA1c value: 1.0-1.5%
